Assay results reported in the supplement of paper PMC10307832.

Experiments:
Assay in all cases: relative viability (nuclei count vs DMSO), 5 days (fraction); higher = more cells survive
Cabozantinib + Foretinib = compound: COc1cc2nccc(Oc3ccc(NC(=O)C4(C(=O)Nc5ccc(F)cc5)CC4)cc3)c2cc1OC [Cabozantinib] + COc1cc2c(Oc3ccc(NC(=O)C4(C(=O)Nc5ccc(F)cc5)CC4)cc3F)ccnc2cc1OCCCN1CCOCC1 [Foretinib] (partner 0.25 µM)
How it was run: (§1)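 A single step with final 0.05% Triton X-100, 1% formaldehyde and 1 ug/ml Hoechst fixed the cells and stained nuclei 5 days after treatment. Lung cancer cell lines in 1536-well plates had been treated by pin tool the day after seeding with one drug alone or a fixed anchor-drug dose plus five library-drug doses (not always all listed) in √10 steps, and nuclei were counted on 4× images. Relative viability is the ratio of nuclei in treated wells to nuclei in vehicle wells, taken as the median of duplicate plates.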

[1] = compound: COc1cc2nccc(Oc3ccc(NC(=O)C4(C(=O)Nc5ccc(F)cc5)CC4)cc3)c2cc1OC [Cabozantinib] + Nc1nc2[nH]cc(CCc3ccc(C(=O)N[C@@H](CCC(=O)O)C(=O)O)cc3)c2c(=O)[nH]1 [Pemetrexed] (partner 0.2 µM)
How it was run: as §1

Zosuquidar + Dasatinib = compound: O[C@@H](COc1cccc2ncccc12)CN1CCN([C@@H]2c3ccccc3[C@@H]3[C@H](c4ccccc42)C3(F)F)CC1 [Zosuquidar] + Cc1nc(Nc2ncc(C(=O)Nc3c(C)cccc3Cl)s2)cc(N2CCN(CCO)CC2)n1 [Dasatinib] (partner 0.075 µM)
How it was run: as §1

Zosuquidar + Pemetrexed = compound: O[C@@H](COc1cccc2ncccc12)CN1CCN([C@@H]2c3ccccc3[C@@H]3[C@H](c4ccccc42)C3(F)F)CC1 [Zosuquidar] + Nc1nc2[nH]cc(CCc3ccc(C(=O)N[C@@H](CCC(=O)O)C(=O)O)cc3)c2c(=O)[nH]1 [Pemetrexed] (partner 0.2 µM)
How it was run: as §1

Cell Line	relative viability (Cabozantinib + Foretinib; first compound 0.06325 µM)	relative viability (Cabozantinib + Foretinib; first compound 0.2 µM)	relative viability (Cabozantinib + Foretinib; first compound 0.6325 µM)	relative viability (Cabozantinib + Foretinib; first compound 2 µM)	relative viability ([1]; first compound 0.02 µM)	relative viability ([1]; first compound 0.06325 µM)	relative viability ([1]; first compound 0.2 µM)	relative viability ([1]; first compound 0.6325 µM)	relative viability ([1]; first compound 2 µM)	relative viability (Zosuquidar + Dasatinib; first compound 0.01 µM)	relative viability (Zosuquidar + Dasatinib; first compound 0.03162 µM)	relative viability (Zosuquidar + Dasatinib; first compound 0.1 µM)	relative viability (Zosuquidar + Dasatinib; first compound 0.3162 µM)	relative viability (Zosuquidar + Dasatinib; first compound 1 µM)	relative viability (Zosuquidar + Pemetrexed; first compound 0.01 µM)	relative viability (Zosuquidar + Pemetrexed; first compound 0.03162 µM)	relative viability (Zosuquidar + Pemetrexed; first compound 0.1 µM)	relative viability (Zosuquidar + Pemetrexed; first compound 0.3162 µM)	relative viability (Zosuquidar + Pemetrexed; first compound 1 µM)	relative viability (Cabozantinib + Foretinib; first compound 0.02 µM)
201T	1.21	1.05	1.05	1.14	0.311	0.351	0.305	0.336	0.313	0.611	0.551	0.526	0.632	0.581	0.315	0.334	0.35	0.322	0.334	
A549	1.17	0.964	0.909	0.942																1.09
A-427	1.28	0.89	0.967	0.786	0.949	1.04	0.995	1.02	1	0.603	0.684	0.634	0.709	0.8	1.01	0.996	0.806	1.02	0.796	1.09
ABC-1	1.13	1.11	1	0.932						0.625	0.592	0.575	0.766	0.532						1.15
BEN	0.79	0.708	0.787	0.387	0.65	0.914	0.781	0.851	0.698	0.31	0.281	0.299	0.314	0.258	0.75	0.738	0.476	1.05	0.684	0.595
CAL-12T	1.31	1.17	1.08	1.18	1.37	1.14	1.25	1.19	1.09	0.355	0.397	0.38	0.606	0.443	1.08	1.15	0.983	1.23	1.1	1.22
COR-L23	1.1	0.976	0.977	0.95	0.215	0.197	0.191	0.185	0.193	0.459	0.474	0.474	0.581	0.485	0.222	0.188	0.201	0.198	0.189	0.978
COR-L 105	1.01		1.14	0.969	1.1	1.19	0.9	0.999	1.02	0.353	0.334	0.341	0.358	0.279	1.27	1.01	1.18	1.1	1.16	1.36
Calu-6	0.876	0.923	0.916	0.811																1.04
ChaGo-K-1	1.04	0.968	0.836	0.857	0.261	0.261	0.255	0.26	0.263	0.615	0.583	0.602	0.737	0.624	0.266	0.255	0.263	0.266	0.26	0.937
